Patent US7683034B2, “Use of enzyme inhibitors of aminopeptidase N and/or dipeptidylpeptidase IV” (IMTM GmbH, priority 2002, dated 2010)

System: immortalized human sebaceous cell line SZ95
Experiment: Inhibition of DNA synthesis (3[H]-thymidine incorporation) of SZ95 sebaceous cells
Type: cell-based
Conditions: 48 h incubation with inhibitor, then 6 h 3[H]-methyl-thymidine incorporation; dose-dependent (FIG. 3)
Procedure: SZ95 cells were 48 h incubated with the above-mentioned inhibitors and subsequently the DNA synthesis was determined by the measurement of the ^ 3[H]-Thymidine incorporation as described in Reinhold et al. (Reinhold, D. et al.: Inhibitors of dipeptidyl peptidase IV induce secretion of transforming growth factor β1 in PWM-stimulated PBMNC and T-cells; Immunology, 1997, 91; 354-360).
The cells were 48 h incubated with inhibitors in the above-mentioned concentrations. Subsequently ^3[H]-Methyl-thymidin was added to the culture medium. After 6 further hours the amount of ^3[H]-Thymidine incorporated in the DNA was measured.

| SMILES | DNA synthesis of the immortalized human sebaceous cell line SZ95 |
| --- | --- |
| N[C@@H](CCCCNC(=O)OCc1ccc([N+](=O)[O-])cc1)C(=O)N1CCSC1 [Lys[Z(NO2)]-thiazolidide] | inhibited |
| CCCCC[C@H](CC(=O)NO)C(=O)N[C@H](C(=O)N1CCC[C@H]1CO)C(C)C [actinonin] | inhibited |
